# Measured values taken from patent US20250285714A1, “A PHARMACEUTICAL PLATFORM TECHNOLOGY FOR DRUG DISCOVERY AND CONSUMER HEALTH PRODUCT DEVELOPMENT” (SINOVEDA CANADA INC., priority 2021, published 2025).
# Tests used:
# Assay type in all cases: cell-based, human
# HepG2 cells [1] = experiment: HepG2 cell proliferation XTT assay; conditions: HepG2 in-vitro cell model
# Experimental: Cell assays: HepG2 cells were obtained from the American Type Culture Collection (ATCC). Cryopreserved cells in DMEM with 10% DMSO were thawed and diluted 10-fold in phenol red free DMEM media containing fetal 10% bovine serum, 100 μg/ml penicillin/streptomycin, supplemented with Glutamax™ and sodium pyruvate. Subsequently, cells were centrifuged at 20 g for 10 minutes. The cells were resuspended in the same media to a concentration of 2×10^5 cells/ml. Ninety-six well cell culture treated flat bottom plates were seeded with 7.5×10^3 HepG2 cells and incubated at 37° C., 5% CO2, >95% relative humidity for 18 hours to allow cellular adhesion after which media was replaced with like media containing 1-20% FBS and various test compounds (50 μg/ml to 50 ng/ml). […] Formazan production was measured 450 nm Varioskan lux at on a spectrophotometer. Non-specific absorption was measured at 660 nm and subtracted from the reference measurement at 450 nm. […]
# Ternary cannabinoid assays: For tertiary cannabinoid compound mixtures, ratio mixtures of CBD:CBC:CBN were randomly chosen between 9:3:1 to 1:1:1 and CBN:CBC:CBD between 3:2:1 to 1:1:1 in IMDM media supplemented with 20% FBS and 1% ethanol and CBD:CBC:CBN ratios between 9:3:1 to 1:1:1 in DMEM media supplemented with 1% FBS. Cannabinoids were mixed and diluted in the media ready for serial dilution. […]
# HepG2 cells [2] = experiment: rtPCR TaqMan array of cancer pathway genes in treated HepG2 cells; conditions: 6 h; CBD 17, CBC 23, CBN 20, 1:1:1 17, sorafenib 12 μg/ml
# Experimental: rt-PCR: Target cancer gene pathways will be analyzed using a custom Taqman array card exploring 91 unique genes involved with a few cancer pathways.
# Two million HepG2 cells in IMDM media with 20% FBS, and 1% ethanol were seeded in T75 flasks and incubated at 37° C., 7.5% CO2 until 70-80% confluent (approx. […]). The media were replenished with media containing individual cannabinoids (CBD 17 μg/ml, CBC 23 μg/ml, CBN 20 μg/ml) and cannabinoid mixture of CBD:CBC:CBN of 1:1:1 (17 μg/ml) and incubated for 6 hours prior to harvest. […] Untreated cells were included as a negative control Glyceraldehyde-3-phosphate dehydrogenase (GAPDH) was included as an endogenous control and used for normalization of the data.
# RNA was extracted using Invitrogen's Dynabead mRNA DIRECT kit using the recommended protocol to provide 50 μL of a purified mRNA solution. […] of RT master mix was mixed into the mRNA solution and the mixture left to react at 37° C. for 60 minutes. Reverse transcriptase inactivation was performed at 95° C. for 5 minutes and the resulting cDNA samples were kept at 4° C. until use. Fifty-five microliters of TaqMan Fast Advance master mix were added to an equal amount of cDNA sample containing 1 μg/100 μl of cDNA, which was loaded into each card reservoir. The cards were centrifuged twice at 1200 RPM for 3 minutes in a Legend XFR centrifuge and the rtPCR reaction was conducted in a QuantStudio7 PCR instrument using the standard settings with 40 amplification cycles.
# Assessment of cancer gene pathways were carried out using custom designed TaqMan array cards exploring 86 genes linked to numerous cancer related pathways. […] In addition to individual pathways, genes linked to specific cellular processes were also explored.
# HepG2 cells [3] = experiment: In-cell Western-blot protein expression in treated HepG2 cells; conditions: six hour treatment; CBD 17, CBC 23, CBN 20, Sorafenib 12, SCI-111 17, SCI-521 17 μg/ml
# Experimental: In-cell Western-blot analysis: Protein expression was assessed by seeding 1000 HepG2 cells/well from cyro frozen stocks into 384 well optical bottom black culture plates from Thermo-Scientific (item 142761) in IMDM media with 20% FBS and 1% ethanol. […] After a six hour treatment, the cells were fixated with 4% formaldehyde for 15 minutes, permeated with 0.1% triton-x100 for 10 minutes, and left in blocking buffer (phosphate buffered saline (PBS) with 3% bovine serum albumin (BSA)) overnight at 4 degrees Celsius. The following day, the cells were rinsed with PBS, incubated with 25 μl PBS containing primary antibody (Table 1) for 3 hours at 25° C. Subsequently, the primary antibody was removed, cells were rinsed twice with PBS, and incubated with 25 μl of PBS containing the secondary antibody (Rabbit: Alexa Fluor 790 donkey anti-rabbit IgG (H+L) Lot 2409042; Mouse: Alexa Fluor 790 donkey anti-mouse IgG (H+L) Lot 2300923) at a concentration of 1:2000. Draq5 (1:2000) was added for normalization of data. After an hour incubation in the secondary antibody, the cells were rinsed with PBS and readings at 700 and 800 nm were acquired on a Licor Odyssey fluorescence imager with a resolution of 21 μm. Analysis was subsequently performed with Empiria Studio 2.1. A total of 5 samples were collected per antibody and the sample size was reduced to 3 for the statistical analysis.
structure (smiles),measurement,setting,value
"C=C(C)[C@@H]1CCC(C)=C[C@H]1c1c(O)cc(CCCCC)cc1O [CBD, Cannabidiol, reference compound]",Potency/efficacy compared to sorafenib,HepG2 cells [1],more potent
same,"rtPCR Log2 fold change relative to untreated cells, BAD (Apoptosis)",HepG2 cells [2],−1.49 Log2 fold change
same,"rtPCR Log2 fold change relative to untreated cells, BAX (Apoptosis)",HepG2 cells [2],−1.103 Log2 fold change
same,"rtPCR Log2 fold change relative to untreated cells, BCL2 (Apoptosis)",HepG2 cells [2],4.139 Log2 fold change
same,"rtPCR Log2 fold change relative to untreated cells, BCL2L1 (Apoptosis)",HepG2 cells [2],−1.414 Log2 fold change
same,"rtPCR Log2 fold change relative to untreated cells, CAMK1 (Ca signaling)",HepG2 cells [2],−1.329 Log2 fold change
same,"rtPCR Log2 fold change relative to untreated cells, CASP3 (Apoptosis)",HepG2 cells [2],−1.165 Log2 fold change
same,"rtPCR Log2 fold change relative to untreated cells, CCND1 (Cell Cycle Arrest)",HepG2 cells [2],−1.396 Log2 fold change
same,"rtPCR Log2 fold change relative to untreated cells, CCND2 (Cell Cycle Arrest)",HepG2 cells [2],−1.032 Log2 fold change
same,"rtPCR Log2 fold change relative to untreated cells, CDK1 (Cell Cycle Arrest)",HepG2 cells [2],−1.257 Log2 fold change
same,"rtPCR Log2 fold change relative to untreated cells, CDK4 (Cell Cycle Arrest)",HepG2 cells [2],−1.517 Log2 fold change
same,"rtPCR Log2 fold change relative to untreated cells, CDK6 (Cell Cycle Arrest)",HepG2 cells [2],−1.224 Log2 fold change
same,"rtPCR Log2 fold change relative to untreated cells, CTNNB1 (Cellular Adhesion)",HepG2 cells [2],−1.164 Log2 fold change
same,"rtPCR Log2 fold change relative to untreated cells, GSK3B (Cellular Adhesion)",HepG2 cells [2],−1.409 Log2 fold change
same,"rtPCR Log2 fold change relative to untreated cells, MAP1LC3A (MAP kinase)",HepG2 cells [2],−1.527 Log2 fold change
same,"rtPCR Log2 fold change relative to untreated cells, MAP3K (MAP kinase)",HepG2 cells [2],−1.213 Log2 fold change
same,"rtPCR Log2 fold change relative to untreated cells, MAPK8 (MAP kinase)",HepG2 cells [2],−2.27 Log2 fold change
same,"rtPCR Log2 fold change relative to untreated cells, MITF (Drug Resistance)",HepG2 cells [2],−4.196 Log2 fold change
same,"rtPCR Log2 fold change relative to untreated cells, MNT (Cell Cycle Arrest)",HepG2 cells [2],−1.533 Log2 fold change
same,"rtPCR Log2 fold change relative to untreated cells, MTOR (PI3K/AKT/MTOR)",HepG2 cells [2],−1.055 Log2 fold change
same,"rtPCR Log2 fold change relative to untreated cells, PAK3 (MAP kinase)",HepG2 cells [2],−1.926 Log2 fold change
same,"rtPCR Log2 fold change relative to untreated cells, PIK3C2A (PI3K/AKT/MTOR)",HepG2 cells [2],−1.161 Log2 fold change
same,"rtPCR Log2 fold change relative to untreated cells, PPARG (Receptors)",HepG2 cells [2],−1.826 Log2 fold change
same,"rtPCR Log2 fold change relative to untreated cells, RAC1 (MAP kinase)",HepG2 cells [2],−1.274 Log2 fold change
same,"rtPCR Log2 fold change relative to untreated cells, RASA1 (MAP kinase)",HepG2 cells [2],−1.356 Log2 fold change
same,"rtPCR Log2 fold change relative to untreated cells, ROCK1 (Cellular Adhesion)",HepG2 cells [2],−1.013 Log2 fold change
same,"rtPCR Log2 fold change relative to untreated cells, SMAD2 (TGF signaling)",HepG2 cells [2],−1.437 Log2 fold change
same,"rtPCR Log2 fold change relative to untreated cells, TAZ (HIPPO)",HepG2 cells [2],−1.766 Log2 fold change
same,"rtPCR Log2 fold change relative to untreated cells, gene name not printed (Apoptosis, row r54)",HepG2 cells [2],−1.09 Log2 fold change
same,"rtPCR Log2 fold change relative to untreated cells, gene name not printed (Cell Cycle Arrest, row r42)",HepG2 cells [2],−1.332 Log2 fold change
same,"rtPCR Log2 fold change relative to untreated cells, gene name not printed (Cellular Adhesion, row r57)",HepG2 cells [2],−1.436 Log2 fold change
same,"rtPCR Log2 fold change relative to untreated cells, gene name not printed (PI3K/AKT/MTOR, row r20)",HepG2 cells [2],−1.565 Log2 fold change
same,"rtPCR Log2 fold change relative to untreated cells, gene name not printed (PI3K/AKT/MTOR, row r22)",HepG2 cells [2],−1.174 Log2 fold change
same,"rtPCR Log2 fold change relative to untreated cells, gene name not printed (Receptors, row r7)",HepG2 cells [2],−6.09 Log2 fold change
same,"Protein fold change, DVLD (Cellular Adhesion)",HepG2 cells [3],1.67 Fold change
same,"Protein fold change, HER2 (Receptor)",HepG2 cells [3],1.34 Fold change
same,"Protein fold change, MEK PO4 (MAP kinase/PI3K)",HepG2 cells [3],1.40 Fold change
same,"Protein fold change, MET PO4 (Receptor)",HepG2 cells [3],1.52 Fold change
same,"Protein fold change, PI3K (MAP kinase/PI3K)",HepG2 cells [3],2.05 Fold change
same,"Protein fold change, PTEN (MAP kinase/PI3K)",HepG2 cells [3],0.80 Fold change
same,"Protein fold change, TEAD2 (HIPPO signaling)",HepG2 cells [3],1.46 Fold change
same,"Protein fold change, VEGA (Angiogenesis)",HepG2 cells [3],1.33 Fold change
same,"Protein fold change, c-MYC (Apoptosis)",HepG2 cells [3],1.55 Fold change
same,"Protein fold change, p53 (Apoptosis)",HepG2 cells [3],1.28 Fold change
